# Data from PMC5817118 (Theranostics, 2018).
# “Also recorded” adds a separate entry of the source. Where a SMILES comes first, the peptide text is derived from it. Bridges are numbered along the chain shown (N, C = ends). [ ]: non-standard residue; d: D form. AEEA = NCCOCCOCC(=O)O
# Key:
# fibrin clot = biological target: T1, fibrin clot (Homo sapiens, UniProt P02671+P02675+P02679); test: Plasma matrix interference on probe binding to fibrin clots; settings: 20 µCi probe, 0.1 M PBS diluted 50% with fresh frozen human plasma, 0.5 mL, 37 °C, 30 min, triplicate
# T1 sequence (P02671 20-644 isoform P02671-2 limits assumed): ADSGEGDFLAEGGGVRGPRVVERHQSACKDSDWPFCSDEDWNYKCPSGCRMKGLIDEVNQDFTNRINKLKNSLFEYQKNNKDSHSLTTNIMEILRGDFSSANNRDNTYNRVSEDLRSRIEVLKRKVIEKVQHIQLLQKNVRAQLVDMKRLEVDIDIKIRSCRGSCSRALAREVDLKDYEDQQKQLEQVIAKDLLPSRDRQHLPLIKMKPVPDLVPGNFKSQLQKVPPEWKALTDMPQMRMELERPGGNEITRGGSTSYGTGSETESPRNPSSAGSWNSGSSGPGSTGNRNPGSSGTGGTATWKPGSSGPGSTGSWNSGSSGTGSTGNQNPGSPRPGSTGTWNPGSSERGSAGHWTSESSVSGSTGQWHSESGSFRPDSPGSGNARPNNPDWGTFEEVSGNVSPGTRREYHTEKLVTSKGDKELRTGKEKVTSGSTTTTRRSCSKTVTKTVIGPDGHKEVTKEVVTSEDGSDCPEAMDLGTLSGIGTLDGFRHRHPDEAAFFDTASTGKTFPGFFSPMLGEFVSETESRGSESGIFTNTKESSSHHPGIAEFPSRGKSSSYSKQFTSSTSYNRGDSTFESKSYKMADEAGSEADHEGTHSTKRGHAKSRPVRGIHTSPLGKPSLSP
# T1 sequence (P02675 45-491 limits assumed): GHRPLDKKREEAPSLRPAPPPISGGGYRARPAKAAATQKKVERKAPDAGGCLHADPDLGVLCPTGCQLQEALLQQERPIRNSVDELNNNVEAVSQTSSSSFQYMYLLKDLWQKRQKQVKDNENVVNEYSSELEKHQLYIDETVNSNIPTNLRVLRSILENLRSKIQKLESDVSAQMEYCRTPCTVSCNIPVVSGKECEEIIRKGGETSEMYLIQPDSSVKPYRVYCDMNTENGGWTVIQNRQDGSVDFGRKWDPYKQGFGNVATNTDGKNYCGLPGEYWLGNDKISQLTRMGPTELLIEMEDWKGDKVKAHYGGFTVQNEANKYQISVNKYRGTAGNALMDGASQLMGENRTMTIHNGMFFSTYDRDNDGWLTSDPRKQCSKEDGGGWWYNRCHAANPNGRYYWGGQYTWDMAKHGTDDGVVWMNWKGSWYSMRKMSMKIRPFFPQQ
# T1 sequence (P02679 27-437 isoform P02679-2 limits assumed): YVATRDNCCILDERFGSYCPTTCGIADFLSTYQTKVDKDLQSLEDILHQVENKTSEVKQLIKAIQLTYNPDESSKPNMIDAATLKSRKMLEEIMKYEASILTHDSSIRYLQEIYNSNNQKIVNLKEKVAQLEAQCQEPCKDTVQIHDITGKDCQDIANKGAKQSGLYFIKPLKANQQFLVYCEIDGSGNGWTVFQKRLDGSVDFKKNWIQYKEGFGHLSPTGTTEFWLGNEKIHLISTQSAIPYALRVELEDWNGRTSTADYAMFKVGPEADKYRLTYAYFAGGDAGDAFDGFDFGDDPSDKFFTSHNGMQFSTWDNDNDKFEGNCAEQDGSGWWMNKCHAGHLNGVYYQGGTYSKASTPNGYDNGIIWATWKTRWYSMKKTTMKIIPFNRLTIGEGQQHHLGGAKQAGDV
# [1] = Organ biodistribution in mice at 180 min; format: in vivo; settings: 180 min after tail vein injection, n=3/treatment
smiles,measurement,setting,value
"CC[C@H](C)[C@H](NC(=O)[C@H](Cc1c[nH]c2ccccc12)NC(=O)[C@@H]1CSSC[C@H](NC(=O)[C@H](CCC(=O)O)NC(=O)[C@H](Cc2c[nH]c3ccccc23)NC(=O)[C@H](CCC(N)=O)NC(=O)COCCOCCNC(=O)[C@H](CCC(=O)O)NC(=O)[C@H](Cc2c[nH]cn2)NC(=O)[C@@H](N)Cc2c[nH]cn2)C(=O)N2CCC[C@H]2C(=O)N[C@@H](Cc2ccc(O)cc2)C(=O)NCC(=O)N[C@@H](CC(C)C)C(=O)N1)C(=O)N[C@@H](CCC(N)=O)C(=O)O [^99mTc-F1A, metal not drawn] (H-HHE[AEEA]QWECPYGLCWIQ-OH; disulfide 8-13)",binding to fibrin clots in the presence of human plasma compared with PBS alone,fibrin clot,interfered; also recorded: dramatically reduced; also recorded: severely compromised
same,"organ accumulation (lung, liver, spleen)",[1],"negligible liver or spleen biodistribution; also recorded: neither probe accumulating substantially in the lung, liver or spleen"
